The source of these data is ChEMBL document CHEMBL1201862, “PubChem BioAssay data set” (2004).

SMILES strings stand for the structures. The source made the active and inactive calls.

Test [1] can be described thus: Shn3 3'UTR reporter inhibitors, dose response, cell-based, Clone20 osteoblasts, firefly luciferase, cherry-picked (AID 624132).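 Further: firefly luciferase luminescence from reporter carrying the Shn3 3'UTR in osteoblasts.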 Type of test: functional.
A short description of test [2]: control 3'UTR Renilla luciferase suppression, dose response, counter-screen for Shn3 inhibitor project, cell-based, Clone20-Shn3RL, cherry-picked (AID 624133). The test is classed as functional.
For a further test, the target named is T1, Protein skinhead-1 (Caenorhabditis elegans, UniProt P34707).
T1 sequence (P34707 whole entry): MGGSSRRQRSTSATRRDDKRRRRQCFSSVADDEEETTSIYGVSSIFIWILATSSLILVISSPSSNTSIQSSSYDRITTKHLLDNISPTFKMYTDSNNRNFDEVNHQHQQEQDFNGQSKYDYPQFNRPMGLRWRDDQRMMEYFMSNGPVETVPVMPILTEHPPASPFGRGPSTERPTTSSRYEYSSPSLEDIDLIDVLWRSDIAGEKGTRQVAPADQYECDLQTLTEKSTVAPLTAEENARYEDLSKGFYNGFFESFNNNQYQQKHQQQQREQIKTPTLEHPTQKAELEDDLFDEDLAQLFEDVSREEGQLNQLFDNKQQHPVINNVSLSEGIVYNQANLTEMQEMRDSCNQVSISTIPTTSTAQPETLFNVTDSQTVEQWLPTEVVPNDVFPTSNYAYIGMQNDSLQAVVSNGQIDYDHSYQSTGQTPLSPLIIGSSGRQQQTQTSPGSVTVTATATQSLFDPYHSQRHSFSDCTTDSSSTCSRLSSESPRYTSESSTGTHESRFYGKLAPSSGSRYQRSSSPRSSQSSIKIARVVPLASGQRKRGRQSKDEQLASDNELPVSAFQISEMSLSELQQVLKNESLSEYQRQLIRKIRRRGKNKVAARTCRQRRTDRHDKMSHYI
Type of test: functional.

For a further test, the system named is HEK293. As to the kind of experiment: inhibitors of LMP1-driven NF-kB reporter, dose response, cell-based, HEK293, luciferase, cherry-pick (AID 588343). The test is classed as functional. The conditions noted are these: Homo sapiens.
Another test concerns the target Cytochrome P450 2C9 (Homo sapiens, UniProt P11712).
In test [3] the target is T2, Sentrin-specific protease 6 (Homo sapiens, UniProt Q9GZR1).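 Further: Luminescence-based dose-response confirmatory assay of SENP6 inhibition, following up an ultra-high-throughput screen.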
T2 sequence (Q9GZR1 whole entry): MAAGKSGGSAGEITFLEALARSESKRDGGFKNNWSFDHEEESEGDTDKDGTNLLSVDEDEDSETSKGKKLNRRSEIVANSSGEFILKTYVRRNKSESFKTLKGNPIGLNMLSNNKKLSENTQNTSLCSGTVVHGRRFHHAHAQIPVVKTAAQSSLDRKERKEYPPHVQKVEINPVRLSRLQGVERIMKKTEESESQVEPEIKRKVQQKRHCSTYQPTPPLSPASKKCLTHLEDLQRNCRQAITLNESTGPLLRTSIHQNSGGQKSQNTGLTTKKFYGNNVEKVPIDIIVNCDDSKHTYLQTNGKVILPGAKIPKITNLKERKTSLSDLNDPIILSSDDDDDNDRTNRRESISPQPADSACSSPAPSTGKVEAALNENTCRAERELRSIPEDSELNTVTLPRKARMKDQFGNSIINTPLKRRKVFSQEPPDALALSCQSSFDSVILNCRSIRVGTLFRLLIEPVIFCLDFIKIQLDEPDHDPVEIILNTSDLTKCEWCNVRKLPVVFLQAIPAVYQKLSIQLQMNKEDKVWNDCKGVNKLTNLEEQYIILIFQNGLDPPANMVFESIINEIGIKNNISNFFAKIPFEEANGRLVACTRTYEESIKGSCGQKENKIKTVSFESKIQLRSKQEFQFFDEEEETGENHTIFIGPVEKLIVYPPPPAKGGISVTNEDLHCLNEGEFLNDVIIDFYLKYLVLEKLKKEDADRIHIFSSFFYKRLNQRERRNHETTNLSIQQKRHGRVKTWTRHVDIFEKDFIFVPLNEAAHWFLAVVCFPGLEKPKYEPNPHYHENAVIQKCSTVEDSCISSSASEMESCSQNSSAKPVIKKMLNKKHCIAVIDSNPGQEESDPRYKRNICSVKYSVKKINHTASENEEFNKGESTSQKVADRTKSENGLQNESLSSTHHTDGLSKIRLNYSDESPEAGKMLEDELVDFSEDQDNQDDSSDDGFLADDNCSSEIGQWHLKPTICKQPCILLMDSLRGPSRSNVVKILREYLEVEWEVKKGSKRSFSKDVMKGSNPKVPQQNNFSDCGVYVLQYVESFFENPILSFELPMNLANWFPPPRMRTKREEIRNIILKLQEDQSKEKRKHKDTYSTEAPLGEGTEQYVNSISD
Type of test: functional.

In test [4] the target is T3, Sentrin-specific protease 8 (Homo sapiens, UniProt Q96LD8).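 Further: luminescence read-out of SENP8 inhibition, dose-response confirmation following an ultra-high-throughput screen.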
T3 sequence (Q96LD8 whole entry): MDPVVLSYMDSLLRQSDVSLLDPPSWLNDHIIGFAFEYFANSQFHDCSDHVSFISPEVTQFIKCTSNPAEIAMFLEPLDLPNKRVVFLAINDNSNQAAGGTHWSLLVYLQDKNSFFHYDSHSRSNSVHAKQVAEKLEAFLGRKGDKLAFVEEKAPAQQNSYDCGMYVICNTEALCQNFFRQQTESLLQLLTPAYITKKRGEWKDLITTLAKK
Type of test: functional.

The target in a further test is T4, Caspase-3 (Homo sapiens, UniProt P42574).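 Further: Dose-response selectivity test against caspase-3 for candidate inhibitors of sentrin-specific proteases (SENPs).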
T4 sequence (P42574 whole entry): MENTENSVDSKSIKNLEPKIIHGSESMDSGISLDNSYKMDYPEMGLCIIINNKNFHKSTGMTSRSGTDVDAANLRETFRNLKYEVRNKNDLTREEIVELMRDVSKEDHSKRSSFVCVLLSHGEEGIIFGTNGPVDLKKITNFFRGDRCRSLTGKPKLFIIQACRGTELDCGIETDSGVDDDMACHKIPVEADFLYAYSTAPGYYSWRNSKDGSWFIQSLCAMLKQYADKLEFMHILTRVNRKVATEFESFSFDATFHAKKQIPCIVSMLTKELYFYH
The test is classed as functional.

The target of test [5] is T5, Sentrin-specific protease 7 (Homo sapiens, UniProt Q9BQF6).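 Further: Luminescence-based dose-response confirmation of ultra-high-throughput screening hits, measuring inhibition of SENP7.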
T5 sequence (Q9BQF6 whole entry): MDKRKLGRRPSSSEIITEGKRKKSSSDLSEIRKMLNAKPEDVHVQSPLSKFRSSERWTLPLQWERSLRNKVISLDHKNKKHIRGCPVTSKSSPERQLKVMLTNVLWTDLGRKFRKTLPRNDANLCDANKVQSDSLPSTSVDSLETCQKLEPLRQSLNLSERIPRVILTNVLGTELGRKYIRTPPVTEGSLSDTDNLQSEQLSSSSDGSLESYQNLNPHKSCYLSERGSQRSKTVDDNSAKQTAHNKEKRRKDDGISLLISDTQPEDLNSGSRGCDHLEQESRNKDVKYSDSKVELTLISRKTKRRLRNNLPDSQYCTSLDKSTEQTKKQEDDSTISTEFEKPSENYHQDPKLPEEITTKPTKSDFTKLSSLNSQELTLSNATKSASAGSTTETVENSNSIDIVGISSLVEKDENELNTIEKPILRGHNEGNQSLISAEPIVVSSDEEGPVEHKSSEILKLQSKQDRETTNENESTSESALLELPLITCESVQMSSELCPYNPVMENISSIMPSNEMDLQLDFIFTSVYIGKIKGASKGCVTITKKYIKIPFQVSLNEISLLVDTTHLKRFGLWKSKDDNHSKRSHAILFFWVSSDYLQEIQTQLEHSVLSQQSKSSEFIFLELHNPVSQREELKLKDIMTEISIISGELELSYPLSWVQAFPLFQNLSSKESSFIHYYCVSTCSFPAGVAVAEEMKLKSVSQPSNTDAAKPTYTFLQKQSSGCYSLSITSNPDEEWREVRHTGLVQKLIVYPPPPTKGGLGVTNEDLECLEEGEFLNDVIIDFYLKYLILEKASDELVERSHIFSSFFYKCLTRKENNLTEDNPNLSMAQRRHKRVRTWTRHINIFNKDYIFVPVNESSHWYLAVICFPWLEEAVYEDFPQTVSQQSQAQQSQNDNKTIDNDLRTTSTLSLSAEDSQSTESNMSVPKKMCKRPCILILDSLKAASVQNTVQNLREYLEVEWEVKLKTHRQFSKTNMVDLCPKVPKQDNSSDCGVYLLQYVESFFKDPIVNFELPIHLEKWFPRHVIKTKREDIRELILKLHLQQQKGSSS
The test is classed as functional.

Sequence of Cytochrome P450 2C9 (P11712 whole entry): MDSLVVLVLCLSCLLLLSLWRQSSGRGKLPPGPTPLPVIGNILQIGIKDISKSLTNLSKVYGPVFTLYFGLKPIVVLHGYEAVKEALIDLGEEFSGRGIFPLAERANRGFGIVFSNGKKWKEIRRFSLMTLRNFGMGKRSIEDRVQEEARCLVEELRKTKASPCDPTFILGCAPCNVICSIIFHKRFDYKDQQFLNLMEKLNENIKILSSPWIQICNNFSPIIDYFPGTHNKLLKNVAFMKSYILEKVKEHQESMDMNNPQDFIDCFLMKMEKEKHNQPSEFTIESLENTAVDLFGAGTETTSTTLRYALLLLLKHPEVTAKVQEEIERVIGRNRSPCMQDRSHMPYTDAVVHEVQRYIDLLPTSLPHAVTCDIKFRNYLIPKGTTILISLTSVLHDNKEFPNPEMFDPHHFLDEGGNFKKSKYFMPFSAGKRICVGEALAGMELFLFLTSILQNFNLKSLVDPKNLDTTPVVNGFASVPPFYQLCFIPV

A word on the AC50: it is the concentration at which the activity in the assay is half-maximal. By IC50 is commonly meant the point on the concentration scale where inhibition reaches its midpoint. On to `Cc1ccc(-c2nc3cccnc3o2)cc1NC(=O)COc1ccc(C(C)(C)C)cc1`, for which the results for the concentration at half-maximal activity (AC50) (in test [1]; in [2]; in the test with HEK293) were 10.8 µM (active), 14.6 µM (active) and 36.3 µM (active), respectively. At Protein skinhead-1, the IC50 is > 100 µM (inactive).

As to `Cc1cccc(CNc2ncnc3ccc(-c4ccoc4)cc23)c1`, the half-maximal activity concentration (AC50) was 1 µM (inconclusive) at Cytochrome P450 2C9 and 35.1 µM (active) in the test on HEK293.

As to `O=C(Nc1cccs1)Nc1ccccc1Br`, the half-maximal inhibitory concentration (IC50) is 33.5 µM (active) in test [3], 57.6 µM (active) in test [4], 20.3 µM (active) on Caspase-3 and 8.26 µM (active) in test [5].
